Values quoted from earlier work, collected in PMC9817006 (Journal of psychopharmacology (Oxford, England), 2022).

Assays:
[1] = systemic administration; ref Rueter et al., 2006; cited from earlier work
[2] = tested on: C57BL/6J mice; settings: low and high doses, ref Akinola et al., 2019; cited from earlier work
[3] = tested on: rats; settings: ref Freitas et al., 2016; cited from earlier work

c1cncc(OC[C@@H]2CCN2)c1 [A-85380]
Antinociception and anti-allodynic activity (in words) [1]: showing efficacy in multiple in vivo assays of antinociception, and anti-allodynic activity after systemic administration

CN1CCC[C@H]1c1cccnc1 [nicotine]
Locomotor sensitization (in words) [2]: lack of locomotor sensitization

dihydro-ß-erythroidine [DHßE]
Effect on 5IA-facilitated ICSS (in words) [3]: blocked
